The values below come from patent publication US5869476A, “Pyrimidinone derivatives” (Boryung Pharmaceutical Co., Ltd., priority 1994, dated 1999).

The target of the experiment is T1, angiotensin II receptor (Oryctolagus cuniculus, UniProt P34976).
T1 construct: The aorta was cut into 3~4 mm to form ring samples; from tissue; host or cells: isolated aorta rings of New Zealand White rabbits
T1 sequence (P34976 1-359): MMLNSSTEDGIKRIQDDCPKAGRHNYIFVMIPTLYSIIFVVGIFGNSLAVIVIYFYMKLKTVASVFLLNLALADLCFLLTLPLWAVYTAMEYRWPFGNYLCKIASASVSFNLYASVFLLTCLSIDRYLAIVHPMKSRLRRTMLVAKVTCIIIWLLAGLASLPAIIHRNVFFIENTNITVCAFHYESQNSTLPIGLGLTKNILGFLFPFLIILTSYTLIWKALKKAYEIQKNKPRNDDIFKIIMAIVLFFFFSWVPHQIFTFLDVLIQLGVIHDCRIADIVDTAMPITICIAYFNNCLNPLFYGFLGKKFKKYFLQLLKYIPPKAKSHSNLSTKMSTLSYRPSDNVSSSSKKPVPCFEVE
Put plainly: inhibition of angiotensin II induced contraction of isolated rabbit aorta rings. It counts as cell-based, New Zealand White rabbit. The following applies: test compound incubated 20 minutes, 37° C., pH 7.4, read-out: IC50 (concentration being required to inhibit angiotensin II induced contraction by 50%). The protocol:
The antagonistic activity of the representative compounds of the invention was evaluated using the methodology describe below.
From New Zealand White rabbits (male or female, 2~2.5 kg), aorta was isolated, and fat and connected tissue were removed therefrom. The aorta was cut into 3~4 mm to form ring samples. The aorta sample was suspended in 20 ml of organ bath (37° C.) containing modified Krebs-Henseleit solution saturated with 95% O2 /5% CO2 (pH 7.4).
The aorta preparation was exposed consecutively to 2 g of tensile strength for 90 minutes intermittently washing the sample with 30 minutes interval and then to 30 mM of KCl to observe contraction response. After washing more than three times, the aorta preparation was again allowed to contract three times for stabilization by adding Angiotensin II ([…]) thereto with 30 minutes interval. The third contraction response to Angiotensin II was considered as control.
10 minutes after the third contraction, the test compound was administered to the aorta preparation, which was incubated for 20 minutes.
Comparing angiotensin II contraction curve obtained from the above inhibition test with that of the control, IC50 (concentration being required to inhibit angiotensin II induced contraction by 50%) was determined for each test compound(Table 1).
For `CCCc1nc(C)c(CCC(=O)O)c(=O)n1Cc1ccc(-c2ccccc2-c2nnn[nH]2)cc1` [Compound 14, 2-n-propyl-5-(2'-carboxyethyl)-6-methyl-3-[[2'-(1H-tetrazol-5-yl)-biphenyl-4-yl]methyl]-pyrimidin-4-(3H)-one], the IC50 was 7.39 nM. To `CCCc1nc(=O)c(CCC(=O)O)c(C)n1Cc1ccc(-c2ccccc2-c2nn[nH]n2)cc1` [Compound 15, 2-n-propyl-5-(2'-carboxyethyl)-6-methyl-1-[[2'-(1H-tetrazol-5-yl)-biphenyl-4-yl]methyl]-pyrimidin-4-(1H)-one] belongs 19.4 nM; to `CCCc1nc(C)c(CCC(=O)N(CC)CC)c(=O)n1Cc1ccc(-c2ccccc2-c2nnn[nH]2)cc1` [Compound 16, 2-n-propyl-5-(2'-diethylaminocarbonylethyl)-6-methyl-3-[[2'-(1H-tetrazol-5-yl)biphenyl-4-yl]methyl]-pyrimidin-4-(3H)-one], 174 nM; to `CCCCc1nc(C)c(CC(=O)OCC)c(=O)n1Cc1ccc(-c2ccccc2-c2nnn[nH]2)cc1` [Compound 17, 2-n-butyl-5-ethoxycarbonylmethyl-6-methyl-3-[[2'-(1H-tetrazol-5-yl)biphenyl-4-yl]methyl]-pyrimidin-4-(3H)-one], 4.63 nM. To `CCCCc1nc(=O)c(CC(=O)OCC)c(C)n1Cc1ccc(-c2ccccc2-c2nnn[nH]2)cc1` [Compound 18, 2-n-butyl-5-ethoxycarbonylmethyl-6-methyl-1-[[2'-(1H-tetrazol-5-yl)biphenyl-4-yl]methyl]-pyrimidin-4-(1H)-one] belongs 93.3 nM; to `CCCCc1nc(C)c(CC(=O)O)c(=O)n1Cc1ccc(-c2ccccc2-c2nnn[nH]2)cc1` [Compound 19, 2-n-butyl-5-carboxymethyl-6-methyl-3-[[2'-(1H-tetrazol-5-yl)-biphenyl-4-yl]methyl]-pyrimidin-4-(3H)-one], 2.63 nM; to `CCCCc1nc(=O)c(CC(=O)O)c(C)n1Cc1ccc(-c2ccccc2-c2nnn[nH]2)cc1` [Compound 20, 2-n-butyl-5-carboxymethyl-6-methyl-1-[[2'-(1H-tetrazol-5-yl)-biphenyl-4-yl]methyl]-pyrimidin-4-(1H)-one], 8.53 nM.

Turning to `CCCCc1nc(C)c(CC(=O)N(CC)CC)c(=O)n1Cc1ccc(-c2ccccc2-c2nnn[nH]2)cc1` [Compound 21, 2-n-butyl-5-diethylaminocarbonylmethyl-6-methyl-3-[[2'-(1H-tetrazol-5-yl)biphenyl-4-yl]methyl]-pyrimidin-4-(3H)-one], the IC50 amounted to 2.63 nM. To `CCCCc1nc(C)c(CC(=O)N(C)C)c(=O)n1Cc1ccc(-c2ccccc2-c2nnn[nH]2)cc1` [Compound 22, 2-n-butyl-5-dimethylaminocarbonylmethyl-6-methyl-3-[[2'-(1H-tetrazol-5-yl)biphenyl-4-yl]methyl]-pyrimidin-4-(3H)-one] belongs 2.37 nM; to `CCCCc1nc(C)c(CCC(=O)OCC)c(=O)n1Cc1ccc(-c2ccccc2-c2nnn[nH]2)cc1` [Compound 23, 2-n-butyl-5-(2'-ethoxycarbonylethyl) -6-methyl-3-[[2'-(1H-tetrazol-5-yl)biphenyl-4-yl]methyl]-pyrimidin-4-(3H)-one], 3.5 nM.

On to `CCCCc1nc(=O)c(CCC(=O)OCC)c(C)n1Cc1ccc(-c2ccccc2-c2nnn[nH]2)cc1` [Compound 24, 2-n-butyl-5-(2'-ethoxycarbonylethyl)-6-methyl-1-[[2'-(1H-tetrazol-5-yl)biphenyl-4-yl]methyl]-pyrimidin-4-(1H)-one], for which the IC50 was 169 nM. To `CCCCc1nc(C)c(CCC(=O)O)c(=O)n1Cc1ccc(-c2ccccc2-c2nnn[nH]2)cc1` [Compound 25, 2-n-butyl-5-(2'-carboxyethyl)-6-methyl-3-[[2'-(1H-tetrazol-5-yl)-biphenyl-4-yl]methyl]-pyrimidin-4-(3H)-one] belongs 9.43 nM.

For `CCCCc1nc(=O)c(CCC(=O)O)c(C)n1Cc1ccc(-c2ccccc2-c2nnn[nH]2)cc1` [Compound 26, 2-n-butyl-5-(2'-carboxyethyl)-6-methyl-1-[[2'-(1H-tetrazol-5-yl)-biphenyl-4-yl]methyl]-pyrimidin-4-(1H)-one], the IC50 amounted to 42.8 nM.

In the case of `CCCCc1nc(C)c(CCC(=O)N(CC)CC)c(=O)n1Cc1ccc(-c2ccccc2-c2nnn[nH]2)cc1` [Compound 27, 2-n-butyl-5-(2'-diethylaminocarbonylethyl)-6-methyl-3-[[2'-(1H-tetrazol-5-yl)biphenyl-4-yl]methyl]-pyrimidin-4-(3H )-one], the IC50 was determined as 30.8 nM. Consider `CCCCc1nc(C)c(CCC(=O)NCc2ccccc2)c(=O)n1Cc1ccc(-c2ccccc2-c2nnn[nH]2)cc1` [Compound 28, 2-n-butyl-5-(2'-benzylaminocarbonylethyl)-6-methyl-3-[[2'-(1H-tetrazol-5-yl)biphenyl-4-yl]methyl]-pyrimidin-4-(3H)-one], for which the IC50 came out at 92.3 nM.

Consider `CCCCc1nc(C)c(CCCC(=O)OCC)c(=O)n1Cc1ccc(-c2ccccc2-c2nnn[nH]2)cc1` [Compound 29, 2-n-butyl-5-(3'-ethoxycarbonylpropyl)-6-methyl-3-[[2'-(1H-tetrazol-5-yl)biphenyl-4-yl]methyl]-pyrimidin-4-(3H)-one], for which the IC50 is 17 nM.

Turning to `CCCCc1nc(C)c(CCCC(=O)O)c(=O)n1Cc1ccc(-c2ccccc2-c2nnn[nH]2)cc1` [Compound 30, 2-n-butyl-5-(3'-carboxypropyl)-6-methyl-3-[[2'-(1H-tetrazol-5-yl)biphenyl-4-yl]methyl]-pyrimidin-4-(3H)-one], the IC50 was 7.26 nM. To `CCCCc1nc(=O)c(CCCC(=O)O)c(C)n1Cc1ccc(-c2ccccc2-c2nn[nH]n2)cc1` [Compound 31, 2-n-butyl-5-(3'-carboxypropyl)-6-methyl-1-[[2'-(1H-tetrazol-5-yl)biphenyl-4-yl]methyl]-pyrimidin-4-(1H)-one] belongs 17 nM; to `CCCCc1nc(C)c(CCCC(=O)N(CC)CC)c(=O)n1Cc1ccc(-c2ccccc2-c2nn[nH]n2)cc1` [Compound 32, 2-n-butyl-5-(3'-diethylaminocarbonylpropyl)-6-methyl-3-[[2'-(1H-tetrazol-5-yl)biphenyl-4-yl]methyl]-pyrimidin-4-(3H )-one], 2.95 nM.

In the case of `CCCCc1nc(CC)c(CCC(=O)OCC)c(=O)n1Cc1ccc(-c2ccccc2-c2nn[nH]n2)cc1` [Compound 33, 2-n-butyl-5-(2'-ethoxycarbonylethyl)-6-ethyl-3-[[2'-(1H-tetrazol-5-yl)biphenyl-4-yl]methyl]-pyrimidin-4-(3H)-one], the IC50 is 11.2 nM. Regarding `CCCCc1nc(CC)c(CCC(=O)O)c(=O)n1Cc1ccc(-c2ccccc2-c2nn[nH]n2)cc1` [Compound 34, 2-n-butyl-5-(2'-carboxyethyl)-6-ethyl-3-[[2'-(1H-tetrazol-5-yl)-biphenyl-4-yl]methyl]-pyrimidin-4-(3H)-one], the IC50 amounted to 4.17 nM. For `CCCCc1nc(=O)c(CCC(=O)O)c(CC)n1Cc1ccc(-c2ccccc2-c2nn[nH]n2)cc1` [Compound 35, 2-n-butyl-5-(2'-carboxyethyl)-6-ethyl-1-[[2'-(1H-tetrazol-5-yl)-biphenyl-4-yl]methyl]-pyrimidin-4-(1H)-one] the value was 62 nM; for `CCCCc1nc(CCC)c(CCC(=O)OCC)c(=O)n1Cc1ccc(-c2ccccc2-c2nn[nH]n2)cc1` [Compound 36, 2-n-butyl-5-(2'-ethoxycarbonylethyl)-6-propyl-3-[[2'-(1H-tetrazol-5-yl)biphenyl-4-yl]methyl]-pyrimidin-4-(3H)-one], 44.5 nM.

For `CCCCc1nc(=O)c(CCC(=O)O)c(CCC)n1Cc1ccc(-c2ccccc2-c2nn[nH]n2)cc1` [Compound 37, 2-n-butyl-5-(2'-carboxyethyl)-6-propyl-1-[[2'-(1H-tetrazol-5-yl)-biphenyl-4-yl]methyl]-pyrimidin-4-(1H)-one], the IC50 came to 115 nM. To `CCCCc1nc(C)c(CC(=O)OCC)c(=O)n1Cc1ccc(-c2ccccc2C(=O)O)cc1` [Compound 38, 2-n-butyl-5-ethoxycarbonylmethyl-6-methyl-3-(2'-carboxy-biphenyl-4-yl)methyl-pyrimidin-4-(3H)-one] belongs 335 nM. For `CCCCc1nc(C)c(CC(=O)O)c(=O)n1Cc1ccc(-c2ccccc2C(=O)O)cc1` [Compound 39, 2-n-butyl-5-carboxymethyl-6-methyl-3-(2'-carboxybiphenyl-4-yl)methyl-pyrimidin-4-(3H)-one] the value was 36.1 nM. For `CCCCc1nc(C)c(CC(=O)N2CCCC2)c(=O)n1Cc1ccc(-c2ccccc2-c2nnn[nH]2)cc1` [Compound 40, 2-n-butyl-5-pyrrolidinocarbonylmethyl-6-methyl-3-[[2'-(1H-tetrazol-5-yl)biphenyl-4-yl]methyl]-pyrimidin-4-(3H)-one] the value was 2.74 nM.
